Experiments:
Type in all cases: in vivo
[1] = tested on: barnyardgrass (Echinochloa crusgalli, ECHCG); assay: Pre-emerge greenhouse herbicide test, phytotoxicity rating; details: Echinochloa crus-galli, pre-emergence, 336 h, 14 days after application, rating scale 0-100; for pest or weed control at 125 g/ha: Rate 125 g al/ha; for pest or weed control at 500 g/ha: Rate 500 g al/ha
Summary of the method: (§1)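 Seeds sown in sandy loam one day before track-sprayer application of acetone solutions at 125–1000 g ai/ha (187 l/ha), then surface-watered to incorporate and bottom-watered. Injury scored visually at 14 days on a 0–100 scale (0 no damage, 100 complete death).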

[2] = tested on: redroot pigweed (Amaranthus retroflexus, AMARE); assay: as above; details: Amaranthus retroflexus, pre-emergence, 336 h, 14 days after application, rating scale 0-100; for pest or weed control at 125 g/ha: Rate 125 g al/ha; for pest or weed control at 500 g/ha: Rate 500 g al/ha
Summary of the method: as §1

[3] = tested on: ivyleaf morningglory (Ipomoea hederacea, IPOHE); assay: as above; details: Ipomoea, pre-emergence, 336 h, 14 days after application, rating scale 0-100; for pest or weed control at 125 g/ha: Rate 125 g al/ha; for pest or weed control at 500 g/ha: Rate 500 g al/ha
Summary of the method: as §1

[4] = tested on: green foxtail (Setaria viridis, SETVI); assay: as above; details: Setaria viridis, pre-emergence, 336 h, 14 days after application, rating scale 0-100; for pest or weed control at 125 g/ha: Rate 125 g al/ha; for pest or weed control at 500 g/ha: Rate 500 g al/ha
Summary of the method: as §1

[5] = tested on: Johnsongrass (Sorghum halepense, SORHA); assay: as above; details: Sorghum halepense, pre-emergence, 336 h, 14 days after application, rating scale 0-100; for pest or weed control at 125 g/ha: Rate 125 g al/ha; for pest or weed control at 500 g/ha: Rate 500 g al/ha
Summary of the method: as §1

[6] = tested on: sicklepod (Cassia obtusifolia, CASOB); assay: as above; details: Senna obtusifolia, pre-emergence, 336 h, 14 days after application, rating scale 0-100; for pest or weed control at 125 g/ha: Rate 125 g al/ha; for pest or weed control at 500 g/ha: Rate 500 g al/ha
Summary of the method: as §1

[7] = tested on: barnyardgrass (Echinochloa crusgalli, ECHCG); assay: Post-emerge greenhouse herbicide test, phytotoxicity rating; details: Echinochloa crus-galli, post-emergence, 336 h, 14 days after application, scale 0-100; for pest or weed control at 63 g/ha: rate 63 g ai/ha; for pest or weed control at 500 g/ha: rate 500 g ai/ha
Summary of the method: (§2)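 Plants at the 2-3 leaf stage, sown 8-21 days earlier, were track-sprayed post-emergence with compound in acetone plus 0.25% v/v non-ionic surfactant at 63-1000 g ai/ha (187 l/ha). Damage was rated at 14 days on a 0-100 scale (0 none, 100 all plants dead), for both crop injury and weed control.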

[8] = tested on: lambsquarters (Chenopodium album, CHEAL); assay: as above; details: Chenopodium album, post-emergence, 336 h, 14 days after application, scale 0-100; for pest or weed control at 63 g/ha: rate 63 g ai/ha; for pest or weed control at 500 g/ha: rate 500 g ai/ha
Summary of the method: as §2

[9] = tested on: redroot pigweed (Amaranthus retroflexus, AMARE); assay: as above; details: Amaranthus retroflexus, post-emergence, 336 h, 14 days after application, scale 0-100; for pest or weed control at 63 g/ha: rate 63 g ai/ha; for pest or weed control at 500 g/ha: rate 500 g ai/ha
Summary of the method: as §2

[10] = tested on: velvetleaf (Abutilon theophrasti, ABUTH); assay: as above; details: Abutilon theophrasti, post-emergence, 336 h, 14 days after application, scale 0-100; for pest or weed control at 63 g/ha: rate 63 g ai/ha; for pest or weed control at 500 g/ha: rate 500 g ai/ha
Summary of the method: as §2

[11] = tested on: large crabgrass (Digitaria sanguinalis, DIGSA); assay: as above; details: Digitaria sanguinalis, post-emergence, 336 h, 14 days after application, scale 0-100; for pest or weed control at 63 g/ha: rate 63 g ai/ha; for pest or weed control at 500 g/ha: rate 500 g ai/ha
Summary of the method: as §2

[12] = tested on: ivyleaf morningglory (Ipomoea hederacea, IPOHE); assay: as above; details: Ipomoea, post-emergence, 336 h, 14 days after application, scale 0-100; for pest or weed control at 63 g/ha: rate 63 g ai/ha; for pest or weed control at 500 g/ha: rate 500 g ai/ha
Summary of the method: as §2

[13] = tested on: green foxtail (Setaria viridis, SETVI); assay: as above; details: Setaria viridis, post-emergence, 336 h, 14 days after application, scale 0-100; for pest or weed control at 63 g/ha: rate 63 g ai/ha; for pest or weed control at 500 g/ha: rate 500 g ai/ha
Summary of the method: as §2

[14] = tested on: Johnsongrass (Sorghum halepense, SORHA); assay: as above; details: Sorghum halepense, post-emergence, 336 h, 14 days after application, scale 0-100; for pest or weed control at 63 g/ha: rate 63 g ai/ha; for pest or weed control at 500 g/ha: rate 500 g ai/ha
Summary of the method: as §2

[15] = tested on: sicklepod (Cassia obtusifolia, CASOB); assay: as above; details: Senna obtusifolia, post-emergence, 336 h, 14 days after application, scale 0-100; for pest or weed control at 63 g/ha: rate 63 g ai/ha; for pest or weed control at 500 g/ha: rate 500 g ai/ha
Summary of the method: as §2

**Q.** What does the source list for `Nn1c(C(F)(F)F)cc(=S)n(-c2cc(Oc3ccc(Cl)cn3)c(Cl)cc2F)c1=O` [Compound 9-28, 1-amino-3-[4-chloro-2-fluoro-5-(5-chloro-2-pyridyloxy)phenyl]-6-trifluoromethyl-1,2,3,4tetrahydro-2-oxo-4-thioxopyrimidine]?
**A.** pest or weed control at 125 g/ha [1]: 20%; pest or weed control at 500 g/ha [1]: 80%; pest or weed control at 125 g/ha [2]: 100%; pest or weed control at 500 g/ha [2]: 100%; pest or weed control at 125 g/ha [3]: 40%; pest or weed control at 500 g/ha [3]: 70%; pest or weed control at 125 g/ha [4]: 100%; pest or weed control at 500 g/ha [4]: 100%; pest or weed control at 125 g/ha [5]: 20%; pest or weed control at 500 g/ha [5]: 80%; pest or weed control at 125 g/ha [6]: 50%; pest or weed control at 500 g/ha [6]: 50%; pest or weed control at 63 g/ha [7]: 0%; pest or weed control at 500 g/ha [7]: 10%; pest or weed control at 63 g/ha [8]: 80%; pest or weed control at 500 g/ha [8]: 100%; pest or weed control at 63 g/ha [9]: 90%; pest or weed control at 500 g/ha [9]: 100%; pest or weed control at 63 g/ha [10]: 90%; pest or weed control at 500 g/ha [10]: 100%; pest or weed control at 63 g/ha [11]: 0%; pest or weed control at 500 g/ha [11]: 0%; pest or weed control at 63 g/ha [12]: 95%; pest or weed control at 500 g/ha [12]: 100%; pest or weed control at 63 g/ha [13]: 25%; pest or weed control at 500 g/ha [13]: 50%; pest or weed control at 63 g/ha [14]: 0%; pest or weed control at 500 g/ha [14]: 30%; pest or weed control at 63 g/ha [15]: 10%; pest or weed control at 500 g/ha [15]: 50%

**Q.** Which pest or weed control at 125 g/ha [1] does the source give for `Nn1c(C(F)(F)F)cc(=O)n(-c2cc(Oc3cc(C(F)(F)F)ccn3)c(Cl)cc2F)c1=O` [Compound 9-8, 1-Amino-3-[4-chloro-2-fluoro-5-(4-trifluoromethyl-2-pyridyloxy)phenyl]-6-trifluoromethyl-1,2,3,4-tetrahydropyrimidine-2,4-dione] here?
**A.** Its pest or weed control at 125 g/ha is 30%.

**Q.** And the pest or weed control at 500 g/ha [1]?
**A.** Its pest or weed control at 500 g/ha is 99%.

**Q.** And the pest or weed control at 125 g/ha [2]?
**A.** Its pest or weed control at 125 g/ha is 100%.

**Q.** What about the pest or weed control at 500 g/ha [2] of the same molecule?
**A.** Its pest or weed control at 500 g/ha is 100%.

**Q.** What about the pest or weed control at 125 g/ha [3] of the same molecule?
**A.** Its pest or weed control at 125 g/ha is 95%.

**Q.** And the pest or weed control at 500 g/ha [3]?
**A.** Its pest or weed control at 500 g/ha is 100%.

**Q.** And the pest or weed control at 125 g/ha [4]?
**A.** The pest or weed control at 125 g/ha was 40%.

**Q.** And the pest or weed control at 500 g/ha [4]?
**A.** The pest or weed control at 500 g/ha was 100%.

**Q.** And the pest or weed control at 125 g/ha [5]?
**A.** The pest or weed control at 125 g/ha was 50%.

**Q.** What about the pest or weed control at 500 g/ha [5] of the same molecule?
**A.** Its pest or weed control at 500 g/ha is 99%.

**Q.** What about the pest or weed control at 125 g/ha [6] of the same molecule?
**A.** The pest or weed control at 125 g/ha was 80%.

**Q.** And the pest or weed control at 500 g/ha [6]?
**A.** Its pest or weed control at 500 g/ha is 90%.

**Q.** What about the pest or weed control at 63 g/ha [7] of the same molecule?
**A.** Its pest or weed control at 63 g/ha is 10%.

**Q.** What about the pest or weed control at 500 g/ha [7] of the same molecule?
**A.** Its pest or weed control at 500 g/ha is 95%.

**Q.** What about the pest or weed control at 63 g/ha [8] of the same molecule?
**A.** Its pest or weed control at 63 g/ha is 95%.

**Q.** What about the pest or weed control at 500 g/ha [8] of the same molecule?
**A.** Its pest or weed control at 500 g/ha is 100%.

**Q.** And the pest or weed control at 63 g/ha [9]?
**A.** Its pest or weed control at 63 g/ha is 100%.

**Q.** And the pest or weed control at 500 g/ha [9]?
**A.** The pest or weed control at 500 g/ha was 100%.

**Q.** And the pest or weed control at 63 g/ha [10]?
**A.** Its pest or weed control at 63 g/ha is 100%.

**Q.** What about the pest or weed control at 500 g/ha [10] of the same molecule?
**A.** The pest or weed control at 500 g/ha was 100%.

**Q.** What about the pest or weed control at 63 g/ha [11] of the same molecule?
**A.** The pest or weed control at 63 g/ha was 10%.

**Q.** And the pest or weed control at 500 g/ha [11]?
**A.** Its pest or weed control at 500 g/ha is 30%.

**Q.** What about the pest or weed control at 63 g/ha [12] of the same molecule?
**A.** Its pest or weed control at 63 g/ha is 95%.

**Q.** What about the pest or weed control at 500 g/ha [12] of the same molecule?
**A.** The pest or weed control at 500 g/ha was 100%.

**Q.** And the pest or weed control at 63 g/ha [13]?
**A.** The pest or weed control at 63 g/ha was 30%.

**Q.** And the pest or weed control at 500 g/ha [13]?
**A.** The pest or weed control at 500 g/ha was 75%.

**Q.** What about the pest or weed control at 63 g/ha [14] of the same molecule?
**A.** The pest or weed control at 63 g/ha was 30%.

**Q.** And the pest or weed control at 500 g/ha [14]?
**A.** The pest or weed control at 500 g/ha was 90%.

**Q.** What about the pest or weed control at 63 g/ha [15] of the same molecule?
**A.** Its pest or weed control at 63 g/ha is 30%.

**Q.** What about the pest or weed control at 500 g/ha [15] of the same molecule?
**A.** The pest or weed control at 500 g/ha was 30%.
